Source: patent publication US11332477B2, “Nitrogen containing heterocycle substituted benzoxazine oxazolidinone compound and preparation method and use thereof” (INSTITUTE OF MATERIA MEDICA, CHINESE ACADEMY OF MEDICAL …, priority 2017, dated 2022)
Values after ≈ are worked out from the molar mass of the structure shown.

Columns and labels:
[1] = tested on: Mycobacterium tuberculosis H37Rv; assay: Anti-tuberculosis activity test in vitro (Microplate Alamar Blue Assay, MABA); assay type: cell-based; conditions: M. tuberculosis H37Rv, MABA, 7H9 medium, method says MIC90 was calculated, read-out: MIC
[2] = tested on: Vero cells; assay: Cytotoxicity test (MTT); assay type: cell-based; conditions: Chlorocebus sabaeus; Vero cells, MTT, 48 hours of incubation, highest concentration 64 μg/mL; read-out: IC50
[3] = tested on: mitochondrial protein synthesis; assay: Activity of inhibiting mitochondrial protein synthesis; assay type: biochemical; conditions: mitochondrial protein synthesis inhibition, Table 3
Description: The experimental steps were carried out according to the literature (Antimicrobial Agents and Chemotherapy, 2006, 50 (6), 2042-2049).

| Structure (SMILES) | MIC [1] [µg/mL] | IC50 [2] [µg/mL] | IC50 [3] [µg/mL] | melting point [°C] |
| --- | --- | --- | --- | --- |
| CC(=O)NC[C@@H]1OC(=O)N2c3cc(F)c(N4CC[S+]([O-])CC4)cc3OC[C@@H]12 [Compound 23, N-(((3S,3aS)-8-Fluoro-1-oxo-7-(1-oxidothiomorpholino)-3a,4-dihydro-1H,3H-benzo[b]oxazolo[3,4-d][1,4]oxazin-3-yl)methyl)acetamide] | 0.442 (≈ 1.11 µM) | > 64 | 60.57 (≈ 152 µM) | 214 to 216 |
| O=C(NC[C@H]1OC(=O)N2c3cc(F)c(N4CCSCC4)cc3OC[C@H]12)C1CCC1 [Compound 29, N-(((3R,3aR)-8-Fluoro-1-oxo-7-thiomorpholino-3a,4-dihydro-1H,3H-benzo[b]oxazolo[3,4-d][1,4]oxazin-3-yl)methyl)cyclobutane carboxamide] | 0.219 (≈ 0.52 µM) | > 64 | >100 | 183 to 185 |
| O=C1O[C@H](CNc2ccon2)[C@H]2COc3cc(N4CCSCC4)c(F)cc3N12 [Compound 31, (3R,3aR)-8-Fluoro-3-((isoxazol-3-ylamino)methyl)-7-thiomorpholino-3a,4-dihydro-1H, 3H-benzo[b]oxazolo[3,4-d][1,4]oxazin-1-one] | 0.123 (≈ 0.303 µM) | > 64 | >100 | 149 to 150 |
